Experimental data published in patent US20240350481A1, “USE OF N-MYRISTOYL TRANSFERASE (NMT) INHIBITORS IN THE TREATMENT OF CANCER, AUTOIMMUNE DISORDERS, AND INFLAMMATORY DISORDERS” (PACYLEX PHARMACEUTICALS INC., priority 2020, published 2024).

Legend:
[1] = dogs; cited from earlier work
BL2 and IM9 cells = experiment: Calcein viability, PCLX-001 vs dasatinib and ibrutinib; type: cell-based
Experimental: Calcein assay consists of measuring the cell viability ratio (live cells/total cells and expressed as % viability). Cells were stained with the Nuclear-ID Blue/Red cell viability reagent (GFP-certified, Enzo Life Sciences) to identify total cells, and dead cells while live cells were stained with Calcein AM (Life Technologies) according to manufacturer's instructions. Cell count was performed using a Cytation 5 Cell Imaging Multi-Mode Reader (Biotek Instruments, Inc.) and analysed by Biotek Gen5 Data Analysis software (version 2.09).

BL2 xenografts = experiment: BL2 xenograft, tumor growth; type: in vivo, mouse
Description: BL2 xenograft study at Jackson Laboratory: One hundred five (105) 6 week old female NOD.CB17-Prkdc scid/J (NOD scid, Stock #001303) mice were transferred to the in vivo research laboratory in Sacramento, CA. The mice were ear notched for identification and housed in individually and positively ventilated polysulfone cages with HEPA filtered air at a density of 5 mice per cage. Initially cages were changed every two weeks. The animal room was lighted entirely with artificial fluorescent lighting, with a controlled 12 hour light/dark cycle (6 am to 6 pm light). The normal temperature and relative humidity ranges in the animal rooms were 20-26° C. and 30-70%, respectively. The animal rooms were set to have up to 15 air exchanges per hour. Filtered tap water, acidified to a pH of 2.5 to 3.0, and standard lab chow were provided ad libitum.
(§1) The dose volume was 10 mL/kg.
TGI (%)=(Vcontrol−Vtreated)/(Vcontrol−Vnitial)*100.

[2] = tested on: hematological cancer cell lines; experiment: ChemPartner cell line screen, CellTiter Blue; type: cell-based; details: 72 h; 3 days of treatment; read-out: median IC50
Experimental: (§2) 131 cell lines were seeded in 96-well plate, black wall, tissue culture treated (from Corning, Cat.3904) and cultured following ATCC formulation. Cell viability after 72 hrs and 144 hrs was measured using Cell Titer Blue Viability Assay (from Promega, Cat. G8081, Lot. No. 0000190181) and fluorescence at 560/590 nm was recorded with Enspire (PerkinElmer). EC50 was calculated using XLfit software (5.5).

[3] = tested on: cell lines originating from solid tumors; experiment: ChemPartner cell line screen, CellTiter Blue; type: cell-based; details: 72 h; 3 days of treatment; 10 μM is the highest dose tested; read-out: median IC50
Experimental: as §2

[4] = tested on: peripheral blood mononuclear cells (PBMCs); experiment: PBMC viability assay; type: cell-based, human; details: 96 hr
Experimental: 2 healthy human research volunteers were recruited for PBMC and lymphocytes isolation from a 20 ml blood collection (patient #1: no diagnosis, no treatment; patient #2: no diagnosis, no treatment). Study protocol was approved by the Health Research Ethics Board of Alberta Cancer Committee (Study title: Evaluations of Fatty AcylTransferases (FATs) in fresh blood and blood forming cells; HREBA.CC-17-0624).
Mononuclear cells were isolated from peripheral blood by density gradient centrifugation using Ficoll-Paque (GE Healthcare, PA, USA). Lymphocytes were isolated from whole blood samples using EasySep™ lymphocyte isolation kit (Stemcell Technologies, Vancouver, BC, Canada) as per manufacturer's instructions. PBMC and lymphocytes were cultured in RPMI medium with 10% FBS, 100 U/ml penicillin, 0.1 mg/ml streptomycin. Cells were plated at a concentration of 2×10^6 cells/ml.

DOHH2 tumors = experiment: DOHH2 xenograft, tumor growth; type: in vivo, mouse
Experimental: DOHH2 xenograft study at Charles River's facility: […] On Day 1 of the study, animals were given a rehydration solution ad libitum in an effort to reduce dehydration during the dosing phase of the study. […] The dose volume was 10 mL/kg.

[5] = Mouse IV; cited from earlier work
[6] = Experimental: Data collected were the same as in the Charles River xenograft study—clinical signs, body weight, tumor volume, blood samples from 3 mice/group for hematology and clinical chemistry (ALT, AST, BUN, creatinine, CK), and tissue samples collected and fixed from the same 3 mice. Liver, kidneys, and small intestine also were weighed.
as §1

**Q.** Which “toxicity at high dose levels” value [1] does the source give for `Cc1c(N[S+](=O)([O-])c2c(Cl)cc(-c3ccnc(N4CCNCC4)c3)cc2Cl)c(CC(C)C)nn1C` [PCLX-001] here?
**A.** hematopoietic toxicity

**Q.** What about the cell death (BL2 and IM9 cells; BL2 cells, 0.1 and 1.0 μM, 48 hours) of the same molecule?
**A.** less than 25%

**Q.** What about the “viability of treated cells” value (BL2 and IM9 cells; at concentrations that are becoming cytotoxic) of the same molecule?
**A.** at least 75%

**Q.** What about the tumor regression (BL2 xenografts; 20 mg/kg daily, by day 9) of the same molecule?
**A.** 42.5%

**Q.** What about the tumor regression (BL2 xenografts; 56 mg/kg daily, 13 days) of the same molecule?
**A.** 100%

**Q.** And the tumor regression (BL2 xenografts; 60 mg/kg daily, 13 days)?
**A.** 100%

**Q.** And the IC50 [2]?
**A.** 0.166 µM

**Q.** And the IC50 [3]?
**A.** ≥ 10 µM

**Q.** And the “decrease in PBMC survival” value ([4]; 0.1 μM)?
**A.** ~50%

**Q.** And the “concentration endured by the surviving PBMCs” value [4]?
**A.** ≤ 10 µM

**Q.** And the “mean tumor growth inhibition (TGI)” value (DOHH2 tumors; 50 mg/kg daily with 5-day interruption, by day 16)?
**A.** 95%

**Q.** And the “reduction of tumor size” value (DOHH2 tumors; 50 mg/kg daily, by day 7)?
**A.** up to 70%

**Q.** What about the average tumor size (DOHH2 tumors; 50 mg/kg daily, day 7) of the same molecule?
**A.** 44.0±8.1 mm^3

**Q.** What about the Clearance [5] of the same molecule?
**A.** 3 mL/min/kg

**Q.** And the “clinical pathology and anatomic pathology” value ([6]; 20, 50, 60 mg/kg/day)?
**A.** no clinical pathology or anatomic pathology findings

**Q.** And the “dehydration and body weight” value ([6]; 50 or 60 mg/kg/day)?
**A.** Dehydration and weight loss

**Q.** And the clinical signs ([6]; most mice in groups given PCLX-001 (20, 50, 60 mg/kg/day))?
**A.** Signs of ill health
